Test results reported in patent US11780845B2 (Relay Therapeutics, Inc., priority 2019, dated 2023).

Legend:
[1] = molecular target: FGFR2 (Homo sapiens (Human), UniProt P21802); assay: Biochemical FGFR2 Caliper assay
[2] = tested on: SNU-16; assay: Cell SNU-16 assay; format: cell-based
[3] = Homo sapiens, SNU-16, SNU-16 cells

Chain of FGFR2 (P21802 22-821): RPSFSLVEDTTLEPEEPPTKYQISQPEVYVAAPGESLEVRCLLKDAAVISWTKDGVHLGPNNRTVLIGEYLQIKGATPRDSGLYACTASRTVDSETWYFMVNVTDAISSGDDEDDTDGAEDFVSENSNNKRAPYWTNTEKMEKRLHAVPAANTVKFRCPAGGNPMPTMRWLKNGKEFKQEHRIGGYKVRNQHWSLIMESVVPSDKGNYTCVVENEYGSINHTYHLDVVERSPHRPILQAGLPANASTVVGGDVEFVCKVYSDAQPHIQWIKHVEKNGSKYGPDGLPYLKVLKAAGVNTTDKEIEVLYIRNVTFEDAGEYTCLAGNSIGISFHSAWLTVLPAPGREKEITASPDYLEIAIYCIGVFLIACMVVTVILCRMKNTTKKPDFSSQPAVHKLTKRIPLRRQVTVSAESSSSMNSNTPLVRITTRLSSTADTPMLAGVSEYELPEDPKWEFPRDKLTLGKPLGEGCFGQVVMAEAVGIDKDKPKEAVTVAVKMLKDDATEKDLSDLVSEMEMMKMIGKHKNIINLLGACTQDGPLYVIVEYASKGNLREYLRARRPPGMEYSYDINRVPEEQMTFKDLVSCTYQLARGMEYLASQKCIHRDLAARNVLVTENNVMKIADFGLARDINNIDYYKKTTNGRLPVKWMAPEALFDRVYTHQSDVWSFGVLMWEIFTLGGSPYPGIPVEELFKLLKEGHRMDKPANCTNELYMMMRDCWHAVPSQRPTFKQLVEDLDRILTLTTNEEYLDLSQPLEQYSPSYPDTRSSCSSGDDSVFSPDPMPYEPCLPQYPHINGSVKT

Row | Compound | IC50 [1] [nM] | IC50 [2, 3] [nM] | IC50 ([2]; SNU-16 cells) [nM]
1 | C#Cc1cc2c(cn1)-c1c(-c3ccc(Oc4nccc(C)n4)c(F)c3)c3c(N)ncnc3n1[C@@H](C)CO2 [Example 1442] | 1000 to 100000 | 250 to 1000 | 
2 | C#Cc1ccc2c(cc(-c3c(-c4ccc(Oc5nccc(C)n5)c(F)c4)c4c(N)ncnc4n3C)n2C)n1 [Example 1461] | 250 to 1000 | 100 to 250 | 
3 | C#Cc1cc(C)c(-c2nn3c(c2-c2ccc(Oc4nccc(C)n4)c(F)c2)COCC3)cn1 [Example 1462] | 1000 to 100000 | 1000 to 100000 | 
4 | C#Cc1cc(OC)c(-c2c(C3=CC[C@@H](C(=O)N4CCC[C@H]4C#N)CC3)c3c(C)ncnc3n2C)cn1 [Example 1467] | 250 to 1000 | ≤ 100 | 
5 | C#Cc1cc(OC)c(-c2c(C3=CC[C@@H](C(=O)N4CCC[C@H]4C#N)CC3)c3c(C)ncnc3n2C)c(C)n1 [Example 1475] | 1000 to 100000 |  | 1000 to 100000
6 | C#Cc1cc(OC)c(-c2c(C3=CC[C@@H](C(=O)N4CCC[C@H]4C#N)CC3)c3c(C)ncnc3n2C)c(C)n1 [Example 1476] | 1000 to 100000 |  | 250 to 1000
7 | C#Cc1cc(CCCO)c(-c2[nH]c3ncnc(N)c3c2-c2ccc(Oc3nccc(C)n3)c(F)c2)cn1 [Example 1478] | 250 to 1000 | 100 to 250 | 
8 | C#Cc1cc(C)c(-c2c(-c3ccc(Oc4nccc(C)n4)c(F)c3)c3c(CO)ncnc3n2C)cn1 [Example 1479] | 250 to 1000 | ≤ 100 | 
9 | C=C(C)C(=O)Nc1ccc(-c2c(C3=CC[C@H](C(=O)N4CCCC4)CC3)c3c(N)ncnc3n2C)c(OC)c1 [Example 1480] | 1000 to 100000 | 250 to 1000 | 
10 | C=C(C)C(=O)Nc1ccc(-c2c(C3=CC[C@H](C(=O)N4CCC[C@H]4C)CC3)c3c(N)ncnc3n2C)c(C)c1 [Example 1481] | 250 to 1000 | 100 to 250 | 

The next lines start with the values.

Row | IC50 [1] [nM] | IC50 [2, 3] [nM] | IC50 ([2]; SNU-16 cells) [nM] | Compound
11 | 100 to 250 | ≤ 100 |  | C#Cc1ccc2c(n1)CCCn1c-2c(-c2ccc(Oc3nccc(C)n3)c(F)c2)c2c(N)ncnc21 [Example 1443]
12 | < 100 | ≤ 100 |  | C#Cc1cc2c(cn1)-c1c(-c3ccc(Oc4nccc(C)n4)c(F)c3)c3c(C)ncnc3n1CCC2 [Example 1445]
13 | < 100 | ≤ 100 |  | C#Cc1cc(OCCO)c(-c2[nH]c3ncnc(N)c3c2-c2ccc(Oc3nccc(C)n3)c(F)c2)cn1 [Example 1447]
14 | < 100 | ≤ 100 |  | C#Cc1cc(OC)c(-c2c(-c3ncc(Oc4nccc(C)n4)cc3F)c3c(N)ncnc3n2C)cn1 [Example 1452]
15 | < 100 | ≤ 100 |  | C#Cc1cc(OC)c(-c2c(-c3ncc(Oc4nccc(C)n4)cc3F)c3c(C)ncnc3n2C)cn1 [Example 1454]
16 | < 100 | ≤ 100 |  | C#Cc1cc2c(cn1)-c1c(-c3ccc(Oc4nccc(C)n4)c(F)c3)c3c(N)ncnc3n1C[C@H](C)O2 [Example 1455]
17 | < 100 | ≤ 100 |  | C#Cc1cc2c(cn1)-c1c(-c3ccc(Oc4nccc(C)n4)c(F)c3)c3c(N)ncnc3n1C[C@@H](C)O2 [Example 1456]
18 | 100 to 250 | ≤ 100 |  | C#Cc1cc(OC)c(-c2c(-c3ccc(C(=O)NCC4(F)CCC4)c(OC)c3)c3c(C)ncnc3n2C)cn1 [Example 1457]
19 | < 100 | ≤ 100 |  | C#Cc1cc(N(C)C)c(-c2c(-c3ccc(Oc4nccc(C)n4)c(F)c3)c3c(N)ncnc3n2C)cn1 [Example 1458]
20 | < 100 | ≤ 100 |  | C#Cc1cc(OC)c(-c2c(C3=CC[C@H](C(=O)N4CCC[C@H]4C#N)CC3)c3c(C)ncnc3n2C)cn1 [Example 1468]
21 | < 100 | ≤ 100 |  | C#Cc1cc(OC)c(-c2c(C3=CC[C@H](C(=O)N4CCC[C@H]4C#N)CC3)c3c(C)ncnc3n2C)c(C)n1 [Example 1473]
22 | < 100 | ≤ 100 |  | C#Cc1cc2c(cn1)-c1c(-c3ccc(Oc4nccc(C)n4)c(F)c3)c3c(N)ncnc3n1CCC2 [Example 1477]
23 | < 100 | ≤ 100 |  | C=C(C)C(=O)Nc1cc(C)c(-c2c(C3=CC[C@H](C(=O)N4CCCC4)CC3)c3c(N)ncnc3n2C)c(F)c1 [Example 1482]
